# Where “and” joins values, the source holds several entries; their conditions need not be identical. Equal values may be shown once.
# How the values were obtained:
# [1] = system: MCF-7 cells prelabeled with 59Fe2-transferrin; test: Mobilization (efflux) of cellular 59Fe; type: cell-based, human; parameters: Efflux 59Fe / Efflux 59Fe, Ave: unit not given here; conditions: for Efflux 59Fe, Ave: average of all replicates; for Efflux 59Fe: single replicate (three per date)
# Excerpt: Human transferrin (Sigma) was labeled with ^56Fe or ^59Fe (PerkinElmer, Massachusetts, USA) to produce ^56Fe2-transferrin or ^59Fe2-transferrin (^59Fe2-Tf), respectively, with a final specific activity of 500 pCi/pmol Fe, as previously described. Unbound ^59Fe was removed by exhaustive vacuum dialysis against a large excess of 0.15 M NaCl buffered to pH 7.4 with 1.4% NaHCO3 by standard methods.
# To examine the ability of studied compounds to mobilize cellular ^59Fe from MCF-7 cells, iron efflux experiments were performed using established techniques. In brief, after pre-labeling confluent MCF-7 cells on 6-well plates with 0.75 μM ^59Fe2-Tf for 3 h/37°C, the cells were washed four times with ice-cold PBS and then subsequently incubated with 25 μM of Bp4eT or its metabolites for 3 h/37°C. The overlying medium containing released ^59Fe was then decanted from the cells. Radioactivity was measured in both the cells and the supernatant using a γ-scintillation counter (Wallac Wizard 3, Turku, Finland).
# MCF-7 cells = test: Viability (viabilita) used to normalise caspase activity; type: cell-based, human; conditions: kontrola = 100;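 further: compound tested at 100 nM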
# Excerpt: Supplement pone.0139929.s002.zip/caspases activity.xlsx, sheet "results_viability"
# [2] = system: HCT116 human colorectal carcinoma cells; test: MTT cytotoxicity assay, HCT116 cells; type: cell-based; conditions: for IC50: MTT
# Protocol: For cytotoxicity experiments, cancer cells were seeded at a density of 5,000 (MCF-7), 10,000 (HL-60) or 2,000 cells/well (HCT116 and A549) in 96-well plates (TPP) for 24 h/37°C prior to the addition of examined agents. The non-cancerous cells, 3T3 and H9c2 cells, were cultured for 24 h/37°C in 96-well plates at a density of 10,000 cells/well, the medium was then changed to serum- and pyruvate-free DMEM (Sigma-Aldrich) and incubated with the cells for another 24 h/37°C. The cytotoxic effects of Bp4eT and its metabolites were studied at different concentrations after a 72 h/37°C incubation. In order to aid the dissolution of the lipophilic ligands, 0.1% dimethyl sulfoxide (v/v) (DMSO; Sigma-Aldrich) was present in the culture medium of all groups. At this concentration, DMSO had no effect on cellular proliferation or viability.
# The viability of cells were determined using an MTT assay (Sigma-Aldrich) according to previously established methods. The optical density of soluble MTT was measured at λ = 570 nm, subtracting the λ = 690 nm background using a Tecan Infinite 200M plate reader (Tecan Group, Männedorf, Switzerland). The viability or proliferation of experimental groups was expressed as a percentage of the untreated controls (100%).
# SigmaStat for Windows 3.5 (Systat Software, San Jose, CA, USA) statistical software package was utilized to analyze results. The data are expressed as the mean ± SD of a given number of experiments. Statistical significance was determined using a one-way ANOVA with a Bonferroni post-hoc test or Student’s t-test. The results were considered to be statistically significant when p < 0.05. The IC50 values were calculated using CalcuSyn 2.0 software (Biosoft, Cambridge, UK). Cell cycle analysis was evaluated using MultiCycle AV Software (Phoenix Flow Systems, San Diego, CA, USA).
# [3] = HCT116, 72 h/37°C, mean ± SD, n ≥ 4
structure (smiles),measurement,setting,value
"CCNC(=O)NN=C(c1ccccc1)c1ccccn1 [E-Bp4eS, 2-benzoylpyridine 4-ethylsemicarbazone]","Efflux 59Fe, Ave",[1],3.661
same,Efflux 59Fe,[1],4.9211 and 3.6997 and 3.3917 and 3.5987 and 3.8929 and 3.2529 and 3.6068 and 3.4574 and 3.1235
same,viabilita,MCF-7 cells; 3 hodiny,98.187
same,viabilita,MCF-7 cells; 24 hodin,99.4673
same,viabilita,MCF-7 cells; 72 hodin,97.81
same,"Therapeutic index, IC50 non-cancerous cells / IC50 neoplastic cells",[2]; 3T3/HCT116,>10.5
same,"Therapeutic index, IC50 non-cancerous cells / IC50 neoplastic cells",[2]; H9c2/HCT116,9.3
same,IC50,[2]; [3],95.4 ± 10.4 µM
same,"MTT, relative to control (0 = 100)","[2]; HCT116, 2 000 b/j, 1 μM, průměr (mean), sheet E-Bp4eS",93.86
same,"MTT, relative to control (0 = 100)","[2]; HCT116, 2 000 b/j, 1 μM, single experiment (date), sheet E-Bp4eS",90.5387 and 95.2075 and 90.3432 and 99.3608
same,"MTT, relative to control (0 = 100)","[2]; HCT116, 2 000 b/j, 3 μM, průměr (mean), sheet E-Bp4eS",91.05
same,"MTT, relative to control (0 = 100)","[2]; HCT116, 2 000 b/j, 3 μM, single experiment (date), sheet E-Bp4eS",88.1499 and 86.4536 and 88.7606 and 100.823
same,"MTT, relative to control (0 = 100)","[2]; HCT116, 2 000 b/j, 10 μM, průměr (mean), sheet E-Bp4eS",89.35
same,"MTT, relative to control (0 = 100)","[2]; HCT116, 2 000 b/j, 10 μM, single experiment (date), sheet E-Bp4eS",79.5919 and 93.1715 and 88.2723 and 96.3507
same,"MTT, relative to control (0 = 100)","[2]; HCT116, 2 000 b/j, 30 μM, průměr (mean), sheet E-Bp4eS",86.47
same,"MTT, relative to control (0 = 100)","[2]; HCT116, 2 000 b/j, 30 μM, single experiment (date), sheet E-Bp4eS",82.3738 and 90.947 and 82.3476 and 90.2168
same,"MTT, relative to control (0 = 100)","[2]; HCT116, 2 000 b/j, 100 μM, průměr (mean), sheet E-Bp4eS",59.19
same,"MTT, relative to control (0 = 100)","[2]; HCT116, 2 000 b/j, 100 μM, single experiment (date), sheet E-Bp4eS",61.842 and 75.8026 and 45.1438 and 53.9757
same,"MTT, relative to control (0 = 100)","[2]; HCT116, 2 000 b/j, 300 μM, průměr (mean), sheet E-Bp4eS",9.27
same,"MTT, relative to control (0 = 100)","[2]; HCT116, 2 000 b/j, 1000 μM, průměr (mean), sheet E-Bp4eS",7.18
same,"MTT, relative to control (0 = 100)","[2]; HCT116, 2 000 b/j, 1000 μM, single experiment (date), sheet E-Bp4eS",7.957 and 7.9705 and 6.656 and 6.131
same,IC50,"[2]; HCT116, 2 000 b/j, single experiment (date), sheet E-Bp4eS",108 µM and 85.2 µM and 99.1 µM
same,IC50,"[2]; Homo sapiens, HCT-116, HCT116, 2 000 b/j, průměr (mean), sheet E-Bp4eS",95.4 µM
same,IC50,"[2]; Homo sapiens, HCT-116, HCT116, 2 000 b/j, single experiment (date), sheet E-Bp4eS",89.2 µM
"CCNC(=O)NN=C(c1ccccc1)c1ccccn1 [Z-Bp4eS, 2-benzoylpyridine 4-ethylsemicarbazone]","Efflux 59Fe, Ave",[1],3.856
same,Efflux 59Fe,[1],5.4747 and 4.265 and 4.3539 and 3.0981 and 3.2068 and 3.9182 and 3.1551 and 3.9954 and 3.2369
same,"Therapeutic index, IC50 non-cancerous cells / IC50 neoplastic cells",[2]; 3T3/HCT116,>3.0
same,"Therapeutic index, IC50 non-cancerous cells / IC50 neoplastic cells",[2]; H9c2/HCT116,1.0
same,IC50,[2]; [3],337 ± 48.5 µM
same,"MTT, relative to control (0 = 100)","[2]; HCT116, 2 000 b/j, 1 μM, průměr (mean), sheet Z-Bp4eS",98.02
same,"MTT, relative to control (0 = 100)","[2]; HCT116, 2 000 b/j, 1 μM, single experiment (date), sheet Z-Bp4eS",92.9248 and 94.2078 and 101.373 and 103.589
same,"MTT, relative to control (0 = 100)","[2]; HCT116, 2 000 b/j, 3 μM, průměr (mean), sheet Z-Bp4eS",95.04
same,"MTT, relative to control (0 = 100)","[2]; HCT116, 2 000 b/j, 3 μM, single experiment (date), sheet Z-Bp4eS",90.3505 and 96.7506 and 97.8429 and 95.2259
same,"MTT, relative to control (0 = 100)","[2]; HCT116, 2 000 b/j, 10 μM, průměr (mean), sheet Z-Bp4eS",92.27
same,"MTT, relative to control (0 = 100)","[2]; HCT116, 2 000 b/j, 10 μM, single experiment (date), sheet Z-Bp4eS",90.1105 and 89.2672 and 98.2602 and 91.4504
same,"MTT, relative to control (0 = 100)","[2]; HCT116, 2 000 b/j, 30 μM, průměr (mean), sheet Z-Bp4eS",89.97
same,"MTT, relative to control (0 = 100)","[2]; HCT116, 2 000 b/j, 30 μM, single experiment (date), sheet Z-Bp4eS",84.3315 and 84.8984 and 97.3042 and 93.3561
same,"MTT, relative to control (0 = 100)","[2]; HCT116, 2 000 b/j, 100 μM, průměr (mean), sheet Z-Bp4eS",81.81
same,"MTT, relative to control (0 = 100)","[2]; HCT116, 2 000 b/j, 100 μM, single experiment (date), sheet Z-Bp4eS",79.36 and 76.1483 and 84.5307 and 87.1986
same,"MTT, relative to control (0 = 100)","[2]; HCT116, 2 000 b/j, 300 μM, průměr (mean), sheet Z-Bp4eS",62.81
same,"MTT, relative to control (0 = 100)","[2]; HCT116, 2 000 b/j, 300 μM, single experiment (date), sheet Z-Bp4eS",53.0737 and 67.0105 and 63.0816 and 68.093
same,"MTT, relative to control (0 = 100)","[2]; HCT116, 2 000 b/j, 1000 μM, průměr (mean), sheet Z-Bp4eS",14.99
same,"MTT, relative to control (0 = 100)","[2]; HCT116, 2 000 b/j, 1000 μM, single experiment (date), sheet Z-Bp4eS",11.223 and 18.8694 and 13.6196 and 16.2655
same,IC50,"[2]; HCT116, 2 000 b/j, single experiment (date), sheet Z-Bp4eS",350 µM and 338 µM and 388 µM
same,IC50,"[2]; Homo sapiens, HCT-116, HCT116, 2 000 b/j, průměr (mean), sheet Z-Bp4eS",337 µM
same,IC50,"[2]; Homo sapiens, HCT-116, HCT116, 2 000 b/j, single experiment (date), sheet Z-Bp4eS",272 µM

# Source: article PMC4604124, “In Vitro Characterization of the Pharmacological Properties of the Anti-Cancer Chelator, Bp4eT, and Its Phase I Metabolites” (PLoS ONE, 2015)
